pIC50: −log10 of the molar value.
What was measured:
[1] = molecular target: HDAC2 (Homo sapiens, UniProt Q92769); assay: HDAC2 inhibition IC50; format: biochemical
[2] = molecular target: HDAC1 (Homo sapiens, UniProt Q13547); assay: HDAC1 inhibition IC50; format: biochemical
[3] = molecular target: HDAC3 (Homo sapiens, UniProt O15379); assay: HDAC3 inhibition IC50; format: biochemical
[4] = test system: hearts from Sprague-Dawley rats; assay: Langendorff isolated heart ischemia-reperfusion model, drug at reperfusion (ex vivo); conditions: drug during reperfusion; for left ventricular function (dP/dtmax, dP/dtmin, developed pressure, rate pressure product): 30 min ischemia, 60 min reperfusion, vs drug-free control; for infarct area / viable myocardium (TTC staining): end of 60 min reperfusion
Description: (B) Graphs represent measurements of left ventricular function after 30 minutes of ischemia and 60 minutes of reperfusion. dP/dtmax indicates the rate of pressure development, dP/dtmin indicates the rate of pressure relaxation, Developed Pressure was calculated as the difference between the systolic and diastolic pressures, Rate Pressure Product was calculated as the developed pressure multiplied by the heart rate. Measurements were taken at the end of reperfusion. (C) TTC staining for infarct area at the end of reperfusion; yellow/white region indicates area of infarction. Infarct areas were measured using imageJ software. All data are represented as mean+/−S.D. N=4, t-test *p,0.05.
FIG. 3 provides data showing (A) Confocal fluorescent images of myocytes loaded with LL-66 and Mitotracker Deep Red FM. (B) LV functional measurements taken at the end of 30 minutes ischemia and 60 minutes of reperfusion, represented as a percentage of baseline pre-ischemia function. dP/dtmax indicates the rate of pressure development, dP/dtmin indicates the rate of pressure relaxation, Developed Pressure was calculated as the difference between the systolic and diastolic pressures, Rate Pressure Product was calculated as the developed pressure multiplied by the heart rate. Measurements were taken at the end of reperfusion. (C) TTC staining for infarct at the end of reperfusion; yellow/white region indicates area of infarction. Infarct areas were measured using image) software. (D) Area of Infarction for each of the groups in (C). N=3 for (A), For B-D, All data are represented as mean+/−S.D. N=4 t-test for panel B, one way ANOVA with bonferroni post-test for panel D *p<0.05.
To test whether selective class I HDAC inhibition can postcondition the heart against […], the inventors isolated hearts from Sprague-Dawley rats and perfused them using a constant pressure Langendorff apparatus. After 15 minutes of equilibration, the inventors subjected the hearts to 30 minutes of ischemia, followed by 60 minutes of reperfusion. The selective class I HDAC inhibitor MS-275 was administered throughout the reperfusion phase and compared to drug-free control hearts (FIG. 1A). In order to measure left ventricular functional performance, a saline-filled balloon was inserted into the left ventricle and attached to a pressure transducer. […] At the conclusion of the 60 minute reperfusion period, hearts were removed from the perfusion column and sliced into 2 mm transverse sections using a tissue slicing matrix. Hearts were then incubated in 2,3,5-triphenyltetrazolium chloride ([…]) in order to determine the amount of infarcted myocardium. […]

[5] = test system: Langendorff hearts; assay: Oxyblotting of lysates from Langendorff hearts subjected to I/R; design: species or system rat; conditions: I/R hearts +/- drug
Description: (§1) FCCP was injected at point A and […] injected at point B. (B) Measurements of OCR in isolated myocytes subjected to normoxia (blue) or chemical hypoxia. reoxygenation (red) and reperfused with DMSO (red), MS-275 (pink), or LL-66 (peach). For (A) and (B), top panels are representative, bottom panels are the uncoupled rate as a percentage of baseline rate over 4 runs. (C) Oxyblotting of tissue homogenates from Langendorff hearts subjected to I/R+/−LL-66 or MS-275. Representative seahorse data are represented mean +/−SEM, Bar graphs are represented mean +/−S.D. For all experiments, N-4, one way ANOVA with Dunnet post test *p<0.05, **p<0.01.
Since acetylation is known to regulate the activity of mitochondrial enzymes involved in multiple metabolic pathways, the inventors decided to determine if class I HDAC inhibition affects metabolic activity in cardiac myocytes both at baseline and when subjected to simulated hypoxia-reoxygenation (sI/R). […] At the conclusion of the reperfusion period, myocytes were loaded into a Seahorse extracellular flux analyzer and the oxygen consumption rate (OCR) was analyzed at baseline and in response to FCCP (injection A) and […] (injection B).

[6] = test system: succinate dehydrogenase; assay: SDH activity in tissue lysates from reperfused Langendorff hearts; design: species or system rat; conditions: Langendorff hearts treated at reperfusion
Description: (§2) N=3 per group. (B) Treatment of Langendorff hearts with HDAC inhibitors reduce succinate dehydrogenase activity. SDH activity was measured in tissue lysates from reperfused hearts treated with either MS275 or LL-66 at reperfusion. N=4 per group. (C) SDHA activity was measured in mitochondria isolated from HEK2.93 cells expressing WT, K480Q or K480R mutants. N=4
(§3) Therefore, since inhibition of the mitochondrial HDAC1 represses SDH activity and. K538 is hyperacetylated in IR when HDAC1 is inhibited, the inventors first proposed to test whether K538 acetylation represses SDH activity. The inventors have made and expressed the mouse WT, K538Q and K538R point mutants of SDHA in HEK293 cells to determine if acetylation of K538 also represses SDH activity. Contrary to what the inventors had hoped the K538Q and K538R SDHA mutants had no difference in SDHA activity from WT SDHA after normalization for expression (data not shown). […] The K480R has WT activity and K.480Q has suppressed SDHA activity (FIG. 5C) when expressed in HEK293 cells.

[7] = test system: isolated adult rat cardiac myocytes; assay: Seahorse oxygen consumption rate (OCR) in myocytes, normoxia or simulated hypoxia-reoxygenation; format: cell-based
Description: as §1
Since acetylation is known to regulate the activity of mitochondrial enzymes involved in multiple metabolic pathways, the inventors decided to determine if class I HDAC inhibition affects metabolic activity in cardiac myocytes both at baseline and when subjected to simulated hypoxia-reoxygenation (sI/R). For these experiments, isolated adult rat cardiac myocytes were subjected to chemical hypoxia or normoxia control for 90 minutes, then reperfused in the presence of DMSO vehicle, MS-275, or LL-66 for 60 minutes. At the conclusion of the reperfusion period, myocytes were loaded into a Seahorse extracellular flux analyzer and the oxygen consumption rate (OCR) was analyzed at baseline and in response to FCCP (injection A) and […] (injection B).

[8] = test system: SDHA; assay: Mass spectrometry of protein acetyl-lysine in I/R hearts treated at reperfusion; design: species or system rat; conditions: for change in SDHA acetylation: I/R hearts, treated at reperfusion, preliminary MS data; for acetylation of SDHA K480: IR with drug treatment
Description: as §2
Samples from I/R hearts treated with LL-66, LL-224, MS-275 and vehicle at reperfusion were prepared for mass spectrometry to detect changes in protein acetyl-lysine. […] The inventors previously proposed to first focus on the lysine corresponding to mouse SDHA K538. […] SDH is unique in that it is the only enzyme that participates both in the Krebs cycle and oxidative phosphorylation in mitochondria. Thirteen acetyl-lysine's have been identified on SDHA but there is no acetylation of SDHB^11*, and SDHA is hyper-acetylated in the Sirt3 knockout mouse. […] HEK293 lowers SDH basal activity^13*, SDH K179 is a target of Sirt3.
as §3

[9] = at baseline (normoxia), FCCP-uncoupled
[10] = following sI/R (90 min chemical hypoxia, 60 min reperfusion with drug)

HDAC3, sequence (O15379 whole entry, species assumed, the tested form may be a part): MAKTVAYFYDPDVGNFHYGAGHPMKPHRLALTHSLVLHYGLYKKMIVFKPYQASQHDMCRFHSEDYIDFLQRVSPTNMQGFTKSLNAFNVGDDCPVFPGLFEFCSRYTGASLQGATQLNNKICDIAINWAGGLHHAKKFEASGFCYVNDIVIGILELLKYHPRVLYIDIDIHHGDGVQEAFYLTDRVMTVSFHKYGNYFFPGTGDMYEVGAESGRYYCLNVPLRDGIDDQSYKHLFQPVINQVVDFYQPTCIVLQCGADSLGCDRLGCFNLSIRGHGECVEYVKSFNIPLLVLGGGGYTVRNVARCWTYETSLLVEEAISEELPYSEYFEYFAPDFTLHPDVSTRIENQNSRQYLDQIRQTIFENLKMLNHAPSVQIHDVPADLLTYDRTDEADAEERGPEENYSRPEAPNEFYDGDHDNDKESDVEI
HDAC3, sequence (Q9Y618 395-489 partner limits assumed, species assumed): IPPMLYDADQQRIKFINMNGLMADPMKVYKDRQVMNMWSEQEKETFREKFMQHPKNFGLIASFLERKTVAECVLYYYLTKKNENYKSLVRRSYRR
HDAC1, sequence (Q13547 whole entry, species assumed): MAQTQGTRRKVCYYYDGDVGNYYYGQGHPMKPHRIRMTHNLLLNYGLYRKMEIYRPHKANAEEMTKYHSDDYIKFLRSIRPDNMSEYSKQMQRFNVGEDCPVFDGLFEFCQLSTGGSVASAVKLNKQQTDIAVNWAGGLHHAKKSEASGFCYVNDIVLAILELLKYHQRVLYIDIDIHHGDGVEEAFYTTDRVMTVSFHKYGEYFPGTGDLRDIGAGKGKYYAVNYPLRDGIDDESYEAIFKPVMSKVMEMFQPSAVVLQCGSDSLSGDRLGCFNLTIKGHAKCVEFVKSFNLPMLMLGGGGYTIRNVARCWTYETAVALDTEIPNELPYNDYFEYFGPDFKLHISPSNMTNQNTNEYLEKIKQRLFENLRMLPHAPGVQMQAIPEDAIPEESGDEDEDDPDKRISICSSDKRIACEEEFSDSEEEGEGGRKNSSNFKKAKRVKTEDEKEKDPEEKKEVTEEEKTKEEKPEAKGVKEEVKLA
HDAC2, sequence (Q92769 whole entry, species assumed): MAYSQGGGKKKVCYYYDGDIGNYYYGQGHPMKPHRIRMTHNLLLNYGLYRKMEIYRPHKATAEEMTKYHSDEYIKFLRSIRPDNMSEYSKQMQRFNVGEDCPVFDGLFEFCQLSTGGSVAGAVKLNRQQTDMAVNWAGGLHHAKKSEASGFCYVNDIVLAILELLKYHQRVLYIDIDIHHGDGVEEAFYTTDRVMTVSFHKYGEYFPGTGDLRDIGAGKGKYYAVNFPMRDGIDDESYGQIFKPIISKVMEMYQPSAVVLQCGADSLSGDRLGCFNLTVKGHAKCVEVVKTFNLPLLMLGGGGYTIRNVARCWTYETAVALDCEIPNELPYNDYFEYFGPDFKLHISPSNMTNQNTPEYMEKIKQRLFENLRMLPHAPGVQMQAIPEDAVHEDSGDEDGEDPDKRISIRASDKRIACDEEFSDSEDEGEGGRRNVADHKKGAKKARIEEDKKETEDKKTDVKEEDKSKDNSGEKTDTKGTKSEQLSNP

| SMILES | pIC50 [1] | pIC50 [2] | pIC50 [3] | left ventricular function (dP/dtmax, dP/dtmin, developed pressure, rate pressure product) [4] | infarct area / viable myocardium (TTC staining) [4] | oxidative damage (oxyblotting) [5] | SDH activity [6] | maximal uncoupled OCR [7, 9] | maximal uncoupled OCR [7, 10] | change in SDHA acetylation [8] | acetylation of SDHA K480 [8] | acetylation of lysine corresponding to mouse SDHA K538 ([8]; IR with drug vs IR with vehicle) | change in acetylation of rat SDHA lysine corresponding to mouse K179 ([8]; IR vs IR+drug) |
| --- | --- | --- | --- | --- | --- | --- | --- | --- | --- | --- | --- | --- | --- |
| CCCNNC(=O)c1ccc(CNC(=O)CNC(=O)c2ccccc2-c2c3ccc(=N)cc-3oc3cc(N)ccc23)cc1 [LL115, 6-amino-9-(2-((2-oxo-2-((4-(2-propylhydrazine-1-carbonyl)benzyl)amino)ethyl)carbamoyl)phenyl)-3H-xanthen-3-iminium 2,2,2-trifluoroacetate] | 6.68 | 7.39 | 8.30 | – | – | – | – | – | – | – | – | – | – |
| N=c1ccc2c(-c3ccccc3C(=O)NCc3ccc(C(=O)Nc4ccccc4N)cc3)c3ccc(N)cc3oc-2c1 [LL66, 2-(4-((2-(6-amino-3-iminio-3H-xanthen-9-yl)benzamido)methyl)benzamido) benzenaminium 2,2,2-trifluoroacetate] | 5.46 | 5.40 | 6.45 | same magnitude of LV functional recovery from injury as the non-targeted class I HDAC inhibitor MS-275 | rescued viable myocardium to the same extent as MS-275 | reduction of oxidative damage | significantly reduced | significantly decreased | significantly decreased | significant changes in acetylation | significantly hyperacetylated | significantly hyperacetylated | – |
| N=c1ccc2c(-c3ccccc3C(=O)NCCCCCC(=O)Nc3ccccc3N)c3ccc(N)cc3oc-2c1 [LL38, 2-(6-(2-(6-amino-3-iminio-3H-xanthen-9-yl)benzamido)hexanamido) benzenaminium 2,2,2-trifluoroacetate] | 6.31 | 5.90 | 6.74 | – | – | – | – | – | – | – | – | – | – |
| Nc1ccccc1NC(=O)c1ccc(CNC(=O)OCc2cccnc2)cc1 [MS-275, reference compound] | – | – | – | significant preservation of multiple parameters of ventricular function | significantly reduced infarct area | reduction of oxidative damage | significantly reduced | significantly decreased | significantly decreased | significant changes in acetylation | significantly hyperacetylated | – | not significant |
| CCCNNC(=O)c1ccc(NC(=O)CNC(=O)c2ccccc2-c2c3ccc(=N)cc-3oc3cc(N)ccc23)cc1 [LL162, 6-amino-9-(2-((2-oxo-2-((4-(2-propylhydrazine-1-carbonyl)phenyl)amino)ethyl)carbamoyl)phenyl)-3H-xanthen-3-iminium 2,2,2-trifluoroacetate] | 6.33 | 6.91 | 8.15 | – | – | – | – | – | – | – | – | – | – |
| CCCNNC(=O)CCCCCCNC(=O)c1ccccc1-c1c2ccc(=N)cc-2oc2cc(N)ccc12 [LL142, 6-amino-9-(2-((7-oxo-7-(2-propylhydrazinyl)heptyl)carbamoyl)phenyl)-3H-xanthen-3-iminium 2,2,2-trifluoroacetate] | 6.34 | 6.95 | 8.22 | – | – | – | – | – | – | – | – | – | – |
| CCCNNC(=O)c1ccc(CNC(=O)c2ccccc2-c2c3ccc(=N)cc-3oc3cc(N)ccc23)cc1 [LL65, 6-amino-9-(2-((4-(2-propylhydrazine-1-carbonyl)benzyl)carbamoyl)phenyl)-3H-xanthen-3-iminium 2,2,2-trifluoroacetate] | 6.07 | 6.56 | 7.44 | – | – | – | – | – | – | – | – | – | – |
| N=c1ccc2c(-c3ccccc3C(=O)NCCCCCCC(=O)Nc3ccccc3N)c3ccc(N)cc3oc-2c1 [LL45, 2-(7-(2-(6-amino-3iminio-3H-xanthen-9-yl)benzamido)heptanamido) benzenaminium 2,2,2-trifluoroacetate] | 5.61 | 5.71 | 7.26 | – | – | – | – | – | – | – | – | – | – |
| N=c1ccc2c(-c3ccccc3C(=O)NCCCCCCCC(=O)Nc3ccccc3N)c3ccc(N)cc3oc-2c1 [LL130, 2-(8-(2-(6-amino-3-iminio-3H-xanthen-9-yl)benzamido)octanamido) benzenaminium 2,2,2-trifluoroacetate] | 5.29 | 5.33 | 6.82 | – | – | – | – | – | – | – | – | – | – |

Reference: patent publication US10703737B2, “HDAC inhibitors and uses thereof” (MUSC FOUNDATION FOR RESEARCH DEVELOPMENT, priority 2018, dated 2020)
